For one test, the target named is T1, CDK9 (Homo sapiens, UniProt P50750).
T1 construct: endogenous in cells; host or cells: MDA-MB-231
Description: CDK protein degradation activity (Western blotting), CDK9. The test is classed as cell-based. The note with it: MDA-MB-231 cells, 16 hours, Western blot. The method, boiled down:
(§1)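 Degradation is judged from CDK2 and CDK9 band intensity relative to tubulin and DMSO-treated cells, after 16 h exposure of MDA-MB-231 cells to three compound concentrations (100 nM, 1 μM, 10 μM).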

In the next test the target is T2, CDK2 (Homo sapiens, UniProt P24941).
T2 construct: endogenous in cells; host or cells: MDA-MB-231
Description: CDK protein degradation activity (Western blotting), CDK2. It counts as cell-based. The conditions noted are these: MDA-MB-231 cells, 16 hours, Western blot. The method, boiled down: as §1
(In general: Immunoblotting shows a protein as a band on a membrane.)

The structures appear in SMILES notation.

T1 sequence (P50750 whole entry): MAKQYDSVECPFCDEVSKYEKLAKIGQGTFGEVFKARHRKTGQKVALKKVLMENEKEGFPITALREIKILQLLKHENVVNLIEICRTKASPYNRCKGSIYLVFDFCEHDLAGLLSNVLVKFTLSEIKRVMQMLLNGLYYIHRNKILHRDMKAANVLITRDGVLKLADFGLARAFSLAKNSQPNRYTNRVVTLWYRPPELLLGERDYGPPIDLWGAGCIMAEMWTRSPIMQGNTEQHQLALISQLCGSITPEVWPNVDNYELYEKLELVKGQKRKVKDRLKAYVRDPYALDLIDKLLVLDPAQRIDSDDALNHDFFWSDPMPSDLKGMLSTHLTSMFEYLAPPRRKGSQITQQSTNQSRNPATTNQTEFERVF

As to `O=C1CCC(N2C(=O)c3cccc(N4CCC(OCCN5CCN(c6ccc(Nc7ncnc8c7ncn8[C@H]7C[C@@H](NC(=O)Cc8ccccc8)C7)cc6)CC5)CC4)c3C2=O)C(=O)N1` (stereo partly drawn) [Compound 260, N-((1s,3s)-3-(6-((4-(4-(2-((1-(2-(2,6-dioxopiperidin-3-yl)-1,3-dioxoisoindolin-4-yl)piperidin-4-yl)oxy)ethyl)piperazin-1-yl)phenyl)amino)-9H-purin-9-yl)cyclobutyl)-2-phenylacetamide], at CDK9, the “Enzyme degradation CDK9 (% remaining) @ 0.1 μM” value was 60/60/60%, the “Enzyme degradation CDK9 (% remaining) @ 1 μM” value is 60/60/60% and the “Enzyme degradation CDK9 (% remaining) @ 10 μM” value was 60/60/60%. On CDK2, the “Enzyme degradation CDK2 (% remaining) @ 0.1 μM” value was 20/20/20%, the “Enzyme degradation CDK2 (% remaining) @ 1 μM” value is given as 20/20/20% and the “Enzyme degradation CDK2 (% remaining) @ 10 μM” value is on record as 20/20/20%.
Regarding `Cc1cccc(C(=O)NC2CC(n3cnc4c(NCCC5CCN(CC6CCN(C(=O)CNc7cccc8c7C(=O)N([C@H]7CCC(=O)NC7=O)C8=O)CC6)CC5)ncnc43)C2)n1` (stereo partly drawn) [Compound 123, N-((1s,3s)-3-(6-((2-(1-((1-((2-(2,6-dioxopiperidin-3-yl)-1,3-dioxoisoindolin-4-yl)glycyl)piperidin-4-yl)methyl)piperidin-4-yl)ethyl)amino)-9H-purin-9-yl)cyclobutyl)-6-methylpicolinamide], at CDK9, the “Enzyme degradation CDK9 (% remaining) @ 0.1 μM” value is 0/0/0%, the “Enzyme degradation CDK9 (% remaining) @ 1 μM” value is recorded as 0/0/0% and the “Enzyme degradation CDK9 (% remaining) @ 10 μM” value is 0/0/0%. For the same compound, on CDK2, the “Enzyme degradation CDK2 (% remaining) @ 0.1 μM” value was determined as 10%, the “Enzyme degradation CDK2 (% remaining) @ 1 μM” value was determined as 10% and the “Enzyme degradation CDK2 (% remaining) @ 10 μM” value came to 20%.
For `O=C1CC[C@H](N2C(=O)c3ccc(N4CC(C(=O)N5CCC(CCCN6CCN(c7ccc(Nc8ncnc9c8ncn9C8CC(NC(=O)Cc9ccccc9)C8)cc7)CC6)CC5)C4)cc3C2=O)C(=O)N1` (stereo partly drawn) [Compound 372, N-((1s,3s)-3-(6-((4-(4-(3-(1-(1-(2-(2,6-dioxopiperidin-3-yl)-1,3-dioxoisoindolin-5-yl)azetidin-3-carbonyl)piperidin-4-yl)propyl)piperazin-1-yl)phenyl)amino)-9H-purin-9-yl)cyclobutyl)-2-phenylacetamide], on CDK9, the “Enzyme degradation CDK9 (% remaining) @ 0.1 μM” value is 0/0/0%, the “Enzyme degradation CDK9 (% remaining) @ 1 μM” value is recorded as 0/0/0% and the “Enzyme degradation CDK9 (% remaining) @ 10 μM” value was 0/0/0%. For the same compound, on CDK2, the “Enzyme degradation CDK2 (% remaining) @ 0.1 μM” value is 90%, the “Enzyme degradation CDK2 (% remaining) @ 1 μM” value is 50% and the “Enzyme degradation CDK2 (% remaining) @ 10 μM” value stood at 50%.
Take `O=C1CC[C@@H](c2ccc(OCC(=O)N3CCC(CCN4CCN(c5ccc(Nc6ncnc7c6ncn7[C@H]6C[C@@H](NC(=O)c7cccc(C(F)(F)F)n7)C6)cc5)CC4)CC3)cc2)C(=O)N1` [Compound 438, N-((1s,3s)-3-(6-((4-(4-(2-(1-(2-(4-(2,6-dioxopiperidin-3-yl)phenoxy)acetyl)piperidin-4-yl)ethyl)piperazin-1-yl)phenyl)amino)-9H-purin-9-yl)cyclobutyl)-6-(trifluoromethyl)picolinamide]: on CDK9, the “Enzyme degradation CDK9 (% remaining) @ 0.1 μM” value was 10/10/10%, the “Enzyme degradation CDK9 (% remaining) @ 1 μM” value was 10/10/10% and the “Enzyme degradation CDK9 (% remaining) @ 10 μM” value was 10/10/10%. Also, on CDK2, the “Enzyme degradation CDK2 (% remaining) @ 0.1 μM” value is on record as 40%, the “Enzyme degradation CDK2 (% remaining) @ 1 μM” value stood at 50% and the “Enzyme degradation CDK2 (% remaining) @ 10 μM” value is 50%.
Turning to `O=C1CC[C@H](N2C(=O)c3cccc(NCC(=O)N4CCC5(CC4)CC(N4CCN(c6ccc(Nc7ncnc8c7ncn8[C@H]7C[C@@H](NC(=O)Cc8ccccc8)C7)cc6)CC4)C5)c3C2=O)C(=O)N1` [Compound 204, N-((1s,3s)-3-(6-((4-(4-(7-((2-(2,6-dioxopiperidin-3-yl)-1,3-dioxoisoindolin-4-yl)glycyl)-7-azaspiro[3.5]nonan-2-yl)piperazin-1-yl)phenyl)amino)-9H-purin-9-yl)cyclobutyl)-2-phenylacetamide], at CDK9, the “Enzyme degradation CDK9 (% remaining) @ 0.1 μM” value was 0/0/0%, the “Enzyme degradation CDK9 (% remaining) @ 1 μM” value is given as 0/0/0% and the “Enzyme degradation CDK9 (% remaining) @ 10 μM” value was 0/0/0%. In addition, at CDK2, the “Enzyme degradation CDK2 (% remaining) @ 0.1 μM” value is 20/20/20%, the “Enzyme degradation CDK2 (% remaining) @ 1 μM” value is recorded as 20/20/20% and the “Enzyme degradation CDK2 (% remaining) @ 10 μM” value is listed as 20/20/20%.
In the case of `O=C1CC[C@H](N2C(=O)c3ccc(N4CCC(CN5CCC(CNc6ncnc7c6ncn7[C@H]6C[C@@H](NC(=O)c7c(Cl)cccc7Cl)C6)CC5)CC4)cc3C2=O)C(=O)N1` [Compound 173, 2,6-dichloro-N-((1s,3s)-3-(6-(((1-((1-(2-(2,6-dioxopiperidin-3-yl)-1,3-dioxoisoindolin-5-yl)piperidin-4-yl)methyl)piperidin-4-yl)methyl)amino)-9H-purin-9-yl)cyclobutyl)benzamide], on CDK9, the “Enzyme degradation CDK9 (% remaining) @ 0.1 μM” value is given as 50%, the “Enzyme degradation CDK9 (% remaining) @ 1 μM” value is reported as 20% and the “Enzyme degradation CDK9 (% remaining) @ 10 μM” value is given as 0%. For the same compound, at CDK2, the “Enzyme degradation CDK2 (% remaining) @ 0.1 μM” value is on record as 30%, the “Enzyme degradation CDK2 (% remaining) @ 1 μM” value worked out at 30% and the “Enzyme degradation CDK2 (% remaining) @ 10 μM” value is 50%.
Turning to `O=C1CCC(N2C(=O)c3cccc(CCCCN4CCC(CN5CCN(c6ccc(Nc7ncnc8c7ncn8[C@H]7C[C@@H](NC(=O)c8cccc(F)n8)C7)cc6)CC5)CC4)c3C2=O)C(=O)N1` (stereo partly drawn) [Compound 432, N-((1s,3s)-3-(6-((4-(4-((1-(4-(2-(2,6-dioxopiperidin-3-yl)-1,3-dioxoisoindolin-4-yl)butyl)piperidin-4-yl)methyl)piperazin-1-yl)phenyl)amino)-9H-purin-9-yl)cyclobutyl)-6-fluoropicolinamide], at CDK9, the “Enzyme degradation CDK9 (% remaining) @ 0.1 μM” value was 0/0/0%, the “Enzyme degradation CDK9 (% remaining) @ 1 μM” value is 0/0/0% and the “Enzyme degradation CDK9 (% remaining) @ 10 μM” value is given as 0/0/0%. Moreover, at CDK2, the “Enzyme degradation CDK2 (% remaining) @ 0.1 μM” value came to 50%, the “Enzyme degradation CDK2 (% remaining) @ 1 μM” value is reported as 40% and the “Enzyme degradation CDK2 (% remaining) @ 10 μM” value came out at 40%.
As for `O=C1CCC(N2C(=O)c3ccc(N4CCC(C(=O)N5CCC(CN6CCC(CCNc7ncnc8c7ncn8[C@H]7C[C@@H](NC(=O)c8c(Cl)cccc8Cl)C7)CC6)CC5)CC4)cc3C2=O)C(=O)N1` (stereo partly drawn) [Compound 400, 2,6-dichloro-N-((1s,3s)-3-(6-((2-(1-((1-(1-(2-(2,6-dioxopiperidin-3-yl)-1,3-dioxoisoindolin-5-yl)piperidin-4-carbonyl)piperidin-4-yl)methyl)piperidin-4-yl)ethyl)amino)-9H-purin-9-yl)cyclobutyl)benzamide], on CDK9, the “Enzyme degradation CDK9 (% remaining) @ 0.1 μM” value was 0/0/0%, the “Enzyme degradation CDK9 (% remaining) @ 1 μM” value is listed as 0/0/0% and the “Enzyme degradation CDK9 (% remaining) @ 10 μM” value is listed as 0/0/0%. Further, on CDK2, the “Enzyme degradation CDK2 (% remaining) @ 0.1 μM” value came out at 30%, the “Enzyme degradation CDK2 (% remaining) @ 1 μM” value worked out at 30% and the “Enzyme degradation CDK2 (% remaining) @ 10 μM” value was determined as 40%.
For `O=C1CC[C@H](N2C(=O)c3ccc(N4CC(C(=O)N5CCC6(CC5)CC(N5CCN(c7ccc(Nc8ncnc9c8ncn9[C@H]8C[C@@H](NC(=O)Cc9ccccc9)C8)cc7)CC5)C6)C4)cc3C2=O)C(=O)N1` [Compound 352, N-((1s,3s)-3-(6-((4-(4-(7-(1-(2-(2,6-dioxopiperidin-3-yl)-1,3-dioxoisoindolin-5-yl)azetidin-3-carbonyl)-7-azaspiro[3.5]nonan-2-yl)piperazin-1-yl)phenyl)amino)-9H-purin-9-yl)cyclobutyl)-2-phenylacetamide], at CDK9, the “Enzyme degradation CDK9 (% remaining) @ 0.1 μM” value was 20/20/20%, the “Enzyme degradation CDK9 (% remaining) @ 1 μM” value is reported as 20/20/20% and the “Enzyme degradation CDK9 (% remaining) @ 10 μM” value was 20/20/20%. Moreover, on CDK2, the “Enzyme degradation CDK2 (% remaining) @ 0.1 μM” value came to 90%, the “Enzyme degradation CDK2 (% remaining) @ 1 μM” value is 70% and the “Enzyme degradation CDK2 (% remaining) @ 10 μM” value is reported as 70%.
Regarding `O=C1CC[C@H](n2nnc3ccc(N4CCC(CN5CCN(c6ccc(Nc7ncnc8c7ncn8C7CC(NC(=O)c8cccc(Cl)n8)C7)cc6)CC5)CC4)cc3c2=O)C(=O)N1` (stereo partly drawn) [Compound 417, 6-chloro-N-((1s,3s)-3-(6-((4-(4-((1-(3-(2,6-dioxopiperidin-3-yl)-4-oxo-3,4-dihydrobenzo[d][1,2,3]triazin-6-yl)piperidin-4-yl)methyl)piperazin-1-yl)phenyl)amino)-9H-purin-9-yl)cyclobutyl)picolinamide], at CDK9, the “Enzyme degradation CDK9 (% remaining) @ 0.1 μM” value is given as 10/10/10%, the “Enzyme degradation CDK9 (% remaining) @ 1 μM” value was 10/10/10% and the “Enzyme degradation CDK9 (% remaining) @ 10 μM” value is given as 10/10/10%. For the same compound, at CDK2, the “Enzyme degradation CDK2 (% remaining) @ 0.1 μM” value was determined as 10%, the “Enzyme degradation CDK2 (% remaining) @ 1 μM” value worked out at 0% and the “Enzyme degradation CDK2 (% remaining) @ 10 μM” value turned out to be 0%.
With `Cc1cccc(C(=O)NC2CC(n3cnc4c(Nc5ccc(N6CCN(C7CC8(CCN(C(=O)C9CCN(c%10ccc%11c(c%10)C(=O)N([C@H]%10CCC(=O)NC%10=O)C%11=O)CC9)CC8)C7)CC6)cc5)ncnc43)C2)n1` (stereo partly drawn) [Compound 403, N-((1s,3s)-3-(6-((4-(4-(7-(1-(2-(2,6-dioxopiperidin-3-yl)-1,3-dioxoisoindolin-5-yl)piperidin-4-carbonyl)-7-azaspiro[3.5]nonan-2-yl)piperazin-1-yl)phenyl)amino)-9H-purin-9-yl)cyclobutyl)-6-methylpicolinamide], on CDK9, the “Enzyme degradation CDK9 (% remaining) @ 0.1 μM” value is 0/0/0%, the “Enzyme degradation CDK9 (% remaining) @ 1 μM” value is 0/0/0% and the “Enzyme degradation CDK9 (% remaining) @ 10 μM” value is 0/0/0%. At CDK2, the “Enzyme degradation CDK2 (% remaining) @ 0.1 μM” value was found to be 60%, the “Enzyme degradation CDK2 (% remaining) @ 1 μM” value was found to be 60% and the “Enzyme degradation CDK2 (% remaining) @ 10 μM” value was found to be 90%.

These data come from patent US20260125382A1, “COMPOUNDS FOR INHIBITING OR DEGRADING CDK2 AND/OR CDK9 AND MEDICINAL USE THEREOF” (KOREA RESEARCH INSTITUTE OF CHEMICAL TECHNOLOGY, priority 2022, published 2026).
